This is an account of results in patent publication US7754741B2, “Pyridine derivatives as fungicidal compounds” (Bayer Cropscience S.A., priority 2003, dated 2010).

The test system of one assay is Botrytis cinerea. The assay can be described thus: In vivo test on Botrytis cinerea (cucumber grey mould). The conditions noted are these: for pest or weed control at 330 ppm: Botrytis cinerea, cucumber plants sprayed 24 hours before contamination, grading 5/7 days after contamination vs control plants, read-out: protection (good (at least 50%) to total); for efficacy against Botrytis cinerea: 330 ppm, comparison compounds of WO 01/11965. As for the experimental part: In Vivo Test on Botrytis cinerea (Cucumber Grey Mould)
(§1) The active ingredient tested is prepared by potter homogenisation in a concentrated suspension type formulation at 100 g/l. This suspension is then diluted with water to obtain the desired active material concentration.
Cucumber plants (Marketer variety) in starter cups, sown on a 50/50 peat soil-pozzolana substrate and grown at 18-20° C., are treated at the cotyledon Z11 stage by spraying with the aqueous suspension described above. Plants, used as controls, are treated with an aqueous solution not containing the active material.
After 24 hours, the plants are contaminated by depositing drops of an aqueous suspension of Botrytis cinerea spores (150,000 spores per ml) on upper surface of the leaves. The spores are collected from a 15-day-old culture and are suspended in a nutrient solution composed of: • 20 g/L of gelatin • 50 g/L of cane sugar • 2 g/L of NH4NO3 • 1 g/L of KH2PO4
The contaminated cucumber plants are settled for 5/7 days in a climatic room at 15-11° C. (day/night) and at 80% relative humidity.
Grading is carried out 5/7 days after the contamination, in comparison with the control plants. Under these conditions, good (at least 50%) to total protection is observed at a dose of 330 ppm with the following compounds :B-7, B-8, B-13, B-14, C-3, C-12, C-13, C-14, C-15, C-16, D-4, D-5, E-4, H-1, H-2, H-4, H-7, H-9, H-22, J-1, J-2, J-3, J-19, J-31, J-32, J-33, J-34, J-35, J-37, J-39, J-43, J-44, R-1, R-10, R-23, R-24, R-26, R-31, V-1, V-8.

The test system of a further assay is Alternaria brassicae. The assay can be described thus: In vivo test on Alternaria brassicae (leaf spot of crucifers). The note with it: for pest or weed control at 330 ppm: Alternaria brassicae, radish plants sprayed 24 hours before contamination, grading 6 to 7 days after contamination vs control plants, read-out: protection (good (at least 50%) to total); for efficacy against Alternaria brassicae: 330 ppm, comparison compounds of WO 01/11965. As for the experimental part:
In Vivo Test on Alternaria brassicae (Leaf Spot of crucifers)
as §1
Radish plants (Pernot variety) in starter cups, sown on a 50/50 peat soil-pozzolana substrate and grown at 18-20° C., are treated at the cotyledon stage by spraying with the aqueous suspension described above.
(§2) Plants, used as controls, are treated with an aqueous solution not containing the active material.
After 24 hours, the plants are contaminated by spraying them with an aqueous suspension of Alternaria brassicae spores (40,000 spores per cm^3). The spores are collected from a 12-13-day-old culture.
The contaminated radish plants are incubated for 6-7 days at about 18° C., under a humid atmosphere.
Grading is carried out 6 to 7 days after the contamination, in comparison with the control plants.

For assay [1], the system named is Erysiphe graminis f. sp. tritici. The assay can be described thus: In vivo test on Erysiphe graminis f. sp. tritici (wheat powdery mildew). The conditions noted are these: Blumeria graminis, wheat plants sprayed 24 hours before contamination, grading 7 to 14 days after contamination vs control plants, read-out: protection (good (at least 50%) to total). As for the experimental part: In Vivo Test on Erysiphe graminis f. sp. tritici (Wheat Powdery Mildew)
as §1
Wheat plants (Audace variety) in starter cups, sown on 50/50 peat soil-pozzolana substrate and grown at 12° C., are treated at the 1-leaf stage (10 cm tall) by spraying with the aqueous suspension described above.
as §2
After 24 hours, the plants are contaminated by dusting them with Erysiphe graminis f. sp. tritici spores, the dusting being carried out using diseased plants. Grading is carried out 7 to 14 days after the contamination, in comparison with the control plants.
Under these conditions, good (at least 50%) to total protection is observed at a dose of 330 ppm with the following compounds: A-4, B-4, B-8, C-2, C-3, C-12, D-4, F-1, H-1, H-2, H-4, H-20, I-3, J-1, J-2, J-3, J-19, J-20, J-31, J-37, J-40, J-55, J-57, J-58, J-59, J-61, K-1, M-5, M-6, R-1, R-10, R-26, R-29, V-7.

The next assay relates to Pyrenophora teres. The assay can be described thus: In vivo test on Pyrenophora teres (barley net blotch). The note with it: for pest or weed control at 330 ppm: Pyrenophora teres, 288 h, barley plants sprayed 24 hours before contamination, grading 12 days after contamination vs control plants, read-out: protection (good (at least 50%) to total); for efficacy against Pyrenophora teres: 330 ppm, comparison compounds of WO 01/11965. How it is done:
In Vivo Test on Pyrenophora teres (Barley Net Blotch)
as §1
Barley plants (Express variety) in starter cups, sown on a 50/50 peat soil-pozzolana substrate and grown at 12° C., are treated at the 1-leaf stage (10 cm tall) by spraying with the aqueous suspension described above. Plants, used as controls, are treated with an aqueous solution not containing the active material.
After 24 hours, the plants are contaminated by spraying them with an aqueous suspension of Pyrenophora teres spores (12,000 spores per ml). The spores are collected from a 12-day-old culture The contaminated barley plants are incubated for 24 hours at about 20° C. and at 100% relative humidity, and then for 12 days at 80% relative humidity.

In another assay the test system is Peronospora brassicae. The assay can be described thus: In vivo test on Peronospora brassicae (cabbage downy mildew). The conditions noted are these: 330 ppm; comparison compounds of WO 01/11965. How it is done: In Vivo Test on Peronospora brassicae (Cabbage Downy Mildew)
as §1
Cabbage plants (Eminence variety) in starter cups, sown on a 50/50 peat soil-pozzolana substrate and grown at 18-20° C., are treated at the cotyledon stage by spraying with the aqueous suspension described above.
as §2
After 24 hours, the plants are contaminated by spraying them with an aqueous suspension of Peronospora brassicae spores (50,000 spores per ml). The spores are collected from infected plant.
The contaminated cabbage plants are incubated for 5 days at 20° C., under a humid atmosphere.
Grading is carried out 5 days after the contamination, in comparison with the control plants.
Under these conditions, good (at least 50%) to total protection is observed at a dose of 330 ppm with the following compounds :B-6,B-7, J-46, J-59.

Turning to `Cn1cc(C(=O)NCCc2ncc(C(F)(F)F)cc2Cl)c(C(F)F)n1` [Compound J-3], the pest or weed control at 330 ppm (in the assay on Botrytis cinerea; in the assay with Alternaria brassicae; in assay [1]; in the assay with Pyrenophora teres) was no less than 50% throughout.

Take `Cc1nn(C)cc1C(=O)NCCc1ncc(Cl)cc1Cl` [Compound J-19]: the pest or weed control at 330 ppm (in the assay with Botrytis cinerea; with Alternaria brassicae; in assay [1]; in the assay with Pyrenophora teres) was no less than 50% throughout.

For `O=C(NCCc1ncc(C(F)(F)F)cc1Cl)c1cccnc1Cl` [Compound R-1], the pest or weed control at 330 ppm (in the assay with Botrytis cinerea; in the assay with Alternaria brassicae; in assay [1]; in the assay on Pyrenophora teres) was no less than 50% each time.

Turning to `Cc1ncccc1C(=O)NCCc1ncc(C(F)(F)F)cc1Cl` [Compound R-10], the pest or weed control at 330 ppm (with Botrytis cinerea; in the assay on Alternaria brassicae; in assay [1]; with Pyrenophora teres) was no less than 50% throughout.

As for `O=C(NCCc1ncc(C(F)(F)F)cc1Cl)c1cccnc1Br` [Compound R-26], the pest or weed control at 330 ppm (with Botrytis cinerea; in the assay on Alternaria brassicae; in assay [1]; with Pyrenophora teres) was no less than 50% throughout.

Turning to `O=C(Cc1cccs1)NCc1ncc(C(F)(F)F)cc1Cl` [compound 101, N-{[3-chloro-5-(trifluoromethyl)-2-pyridinyl]-methyl}-5-thienylacetamide, reference compound], in the assay with Botrytis cinerea, the “efficacy against Botrytis cinerea” value was “no efficacy”. Also, in the assay with Alternaria brassicae, the “efficacy against Alternaria brassicae” value is listed as “poor efficacy”. In the assay with Peronospora brassicae, the “efficacy against Peronospora parasitica” value is listed as “no efficacy”.

`CCNC(=O)C(Cc1ncc(C(F)(F)F)cc1Cl)NC(=O)c1cccc([N+](=O)[O-])c1` (centres unmarked) [compound 307, N-{1-ethylcarbamoyl-2-[3-chloro-5-(trifluoromethyl)-2-pyridinyl]ethyl}-3-nitrobenzamide, reference compound]: the “efficacy against Botrytis cinerea” value in the assay with Botrytis cinerea is “no efficacy”. Besides, the “efficacy against Alternaria brassicae” value with Alternaria brassicae is listed as “poor efficacy”. Also, the “efficacy against Pyrenophora teres” value in the assay with Pyrenophora teres is listed as “poor efficacy”. Moreover, the “efficacy against Peronospora parasitica” value in the assay with Peronospora brassicae is reported as “no efficacy”.

Consider `CCNC(=O)C(Cc1ncc(C(F)(F)F)cc1Cl)NC(=O)c1ccccc1Br` (centres unmarked) [compound 310, N-{1-ethylcarbamoyl-2-[3-chloro-5-(trifluoromethyl)-2-pyridinyl]ethyl}-2-bromobenzamide, reference compound], for which the “efficacy against Botrytis cinerea” value in the assay with Botrytis cinerea is on record as “no efficacy”. Besides, the “efficacy against Alternaria brassicae” value in the assay with Alternaria brassicae is recorded as “poor efficacy”. In addition, the “efficacy against Pyrenophora teres” value in the assay with Pyrenophora teres was “poor efficacy”. Further, the “efficacy against Peronospora parasitica” value in the assay with Peronospora brassicae was “no efficacy”.

Turning to `CNC(=O)C(Cc1ncc(C(F)(F)F)cc1Cl)NC(=O)c1ccc(-c2ccccc2)cc1` (centres unmarked) [compound 316, N-{1-methylcarbamoyl-2-[3-chloro-5-(trifluoromethyl)-2-pyridinyl]ethyl}-4-phenylbenzamide, reference compound], the “efficacy against Botrytis cinerea” value in the assay on Botrytis cinerea was “no efficacy”. Also, the “efficacy against Alternaria brassicae” value in the assay with Alternaria brassicae is “poor efficacy”. In the assay on Pyrenophora teres, the “efficacy against Pyrenophora teres” value is “poor efficacy”. In addition, the “efficacy against Peronospora parasitica” value in the assay with Peronospora brassicae is “no efficacy”.
